# Key:
# RORγ = molecular target: T1, RORγ (UniProt P51449); assay type: cell-based; details: 293T cells, 16 h; for pIC50 (FF): firefly (FF) luciferase; for pIC50 (REN): renilla normalised (RENnorm) luciferase
# T1 construct: hRORg-LBD|aa259-518|NP_005051.2; hRORgt|aa1-497|NP_001001523 (RORg, t isoform, 497aa); mRORg-LBD|aa264-516|NP_035411
# T1 sequence (P51449 1-518): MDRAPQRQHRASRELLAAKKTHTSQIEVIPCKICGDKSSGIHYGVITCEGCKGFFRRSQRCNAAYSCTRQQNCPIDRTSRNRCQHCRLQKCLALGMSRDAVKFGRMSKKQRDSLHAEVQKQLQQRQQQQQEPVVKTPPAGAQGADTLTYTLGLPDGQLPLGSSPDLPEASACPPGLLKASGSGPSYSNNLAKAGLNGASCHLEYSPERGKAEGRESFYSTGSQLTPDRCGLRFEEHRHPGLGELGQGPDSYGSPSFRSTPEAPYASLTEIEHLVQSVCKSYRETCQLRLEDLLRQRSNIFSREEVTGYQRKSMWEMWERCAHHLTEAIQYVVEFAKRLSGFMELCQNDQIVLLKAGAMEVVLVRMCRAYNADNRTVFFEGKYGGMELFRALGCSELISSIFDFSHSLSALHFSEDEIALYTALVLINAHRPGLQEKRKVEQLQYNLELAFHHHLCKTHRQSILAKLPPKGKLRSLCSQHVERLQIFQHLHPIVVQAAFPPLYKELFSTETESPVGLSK
# Protocol: Determination of a ligand mediated Gal4 promoter driven transactivation to quantify ligand binding to RORγ was performed as follows: DNA encoding three different RORγ. protein fragments was cloned into vector pCMV-BD (Stratagene). Expression was under control of a CMV promoter and as fusion to the DNA-binding domain of the yeast protein GAL4. Other vectors used were pFR-Luc (Stratagene) as regulated reporter plasmid. pFR-Luc contains a synthetic promoter with five tandem repeats of the yeast GAL4 binding sites that control expression of the Photinus pyralis (American firefly) luciferase gene. In order to improve experimental accuracy the plasmid pRL-CMV was cotransfected. pRL-CMV contains the constitutive CMV promoter, controlling the expression of the Renilla reniformis luciferase.
# All Gal4 reporter gene assays were done in 293T cells (DSMZ (German Collection of Microorganisms and Cell Cultures), Braunschweig, Germany, ACC635) grown in Minimum Essential Medium (MEM) with Phenol Red. The medium is supplemented with 10% fetal bovine serum, 0.1 mM nonessential amino acids, 1 mM sodium pyruvate, 1% Glutamax and 100 units Penicilin/[…] per mL at 37° C. in 5% CO2.
# For the assay, […] were plated per well in 96 well plates in 100 μL per well, incubated over night at 37° C. in 5% CO2. The following day, medium was discarded and the cells were transiently transfected using 20 μL per well of a OptiMEM—PEI-based transfection-reagent (Sigma-Aldrich, 408727) including the three plasmids described above. About 4 h after addition of the transfection solution, fresh Minimal Essential Medium (MEM, same composition as used for plating cells, but without serum) was added. Then compound stocks, prediluted in MEM (same composition as used for plating cells) were added (final vehicle concentration not exceeding 0.1%).
# All experiments were done at least in triplicates.
# It is understood that the data illustrated below may have reasonable variation depending on the specific conditions and procedures used by the person conducting the test.
# [1] = molecular target: T2, RORγ ligand binding domain (LBD) (Homo sapiens, UniProt P51449); assay: TR-FRET Activity Assay (ligand sensing assay, RORγ-LBD / coactivator peptide interaction); assay type: biochemical
# T2 construct: made in house; host or cells: E. coli BL-21 (BL3), vector pDEST15
# T2 sequence (P51449 269-508 limits assumed): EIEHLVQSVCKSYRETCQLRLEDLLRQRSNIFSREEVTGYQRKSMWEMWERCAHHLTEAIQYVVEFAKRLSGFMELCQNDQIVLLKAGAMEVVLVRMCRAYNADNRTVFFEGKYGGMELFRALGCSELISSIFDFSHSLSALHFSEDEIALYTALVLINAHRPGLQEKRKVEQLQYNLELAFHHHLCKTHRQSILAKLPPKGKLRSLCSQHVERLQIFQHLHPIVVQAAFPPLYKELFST
# Description: This method measures the ability of putative ligands to modulate the interaction between the purified bacterial expressed RORγ ligand binding domain (LBD) and synthetic N-terminally biotinylated peptides which are derived from nuclear receptor coactivator proteins such as but not limited to SRC1 (NcoA1), SRC2 (NcoA2, TIF2), SRC3 (NcoA3), PGC1α, PGC1β, CBP, GRIP1, TRAP220, RIP140.
# The ligand-binding domain (LBD) of RORγ was expressed as fusion protein with GST in […] cells using the vector pDEST15. Cells were lysed by lysozyme-treatment and sonication, and the fusion proteins purified over glutathione sepharose (Pharmacia) according to the manufacturers instructions. For screening of compounds for their influence on the RORγ-peptide interaction, the LANCE technology (Perkin Elmer) was applied. This method relies on the binding dependent energy transfer from a donor to an acceptor fluorophor attached to the binding partner of interest. For ease of handling and reduction of background from compound fluorescence LANCE technology makes use of generic fluorophore labels and time resolved detection assays were done in a final volume of 25 μL in a 384 well plate, in a Tris-based buffer system (20 mM Tris-HCl pH6.8; 60 mM KCl, 1 mM DTT; 5 mM MgCl2; 35 ng/μL BSA), containing 20-60 ng/well recombinantly expressed RORγ-LBD fused to GST, 200-600 nM N-terminally biotinylated peptide, 200 ng/well Streptavidin-xIAPC conjugate (Prozyme) and 6-10 ng/well Eu W1024-antiGST (Perkin Elmer). DMSO content of the samples was kept at 1%.
# After generation of the Tris-based buffer system, the potentially RORγ modulating ligands were diluted. […] The LANCE signal was detected by a Perkin Elmer EnVision™ Multilabel Counter. The results were visualized by plotting the ratio between the emitted light at 665 nm and 615 nm. […] Ligands that promote the complex formation induce a concentration-dependent increase in time-resolved fluorescent signal.
# To assess the antagonistic potential of the compounds, IC50 values were determined using a Ligand Sensing Assay based on Time-resolved Fluorescence Energy Transfer (TR-FRET) as described above. The normalised TR-FRET assay values, using the following equation: 1000*665 nm measurement value/615 nm measurement value, were transferred to the program GraphPad Prism to generate graphs and dose response curves using the following equation: […]
# This is identical to the “four parameter logistic equation”. The IC50 values are calculated using this equation. […] Is is understood that the data illustrated below may have reasonable variation depending on the specific conditions and procedures used by the person conducting the test.
compound,measurement,setting,value
CC(C)(O)CNC(=O)c1nn(-c2cc(C(C)(C)C)cc(C(C)(C)C)c2)c(CC2CCCCC2)c1Cl [103/5],pIC50 (FF),RORγ,6.2
same,pIC50 (REN),RORγ,6.3
same,IC50,[1],316 nM
CC(C)(C)c1cc(-n2nc(C(=O)NCc3ccno3)c(Cl)c2CC2CCCCC2)cc(C(C)(C)C)c1 [103/6],pIC50 (FF),RORγ,6.1
same,pIC50 (REN),RORγ,6.2
same,IC50,[1],631 nM
CC(C)(C)c1cc(-n2nc(C(=O)NCc3cnco3)c(Cl)c2CC2CCCCC2)cc(C(C)(C)C)c1 [103/7],pIC50 (FF),RORγ,6.3
same,pIC50 (REN),RORγ,6.3
same,IC50,[1],251 nM
CC(C)(C)c1cc(-n2nc(C(=O)NCc3ccn[nH]3)c(Cl)c2CC2CCCCC2)cc(C(C)(C)C)c1 [103/8],pIC50 (FF),RORγ,< 4.7
same,pIC50 (REN),RORγ,< 4.7
same,IC50,[1],794 nM
COC(C)(C)c1cc(-n2nc(C(=O)NC3COC3)c(Cl)c2CC2CCCCC2)cc(C(C)(C)C)c1 [104/4],pIC50 (FF),RORγ,6.6
same,pIC50 (REN),RORγ,6.6
same,IC50,[1],631 nM
CC(C)(C)NS(=O)(=O)c1ccc(-c2cc(C(=O)NC34CCC(C(=O)O)(CC3)CC4)nn2CC2CCCCC2)c(Cl)c1Cl [112/2],pIC50 (FF),RORγ,6.9
same,pIC50 (REN),RORγ,7.0
same,IC50,[1],794 nM
Cc1c(C(=O)NC2CCOCC2)cc(-c2ccc(S(=O)(=O)NC(C)(C)C)c(C(F)(F)F)c2)n1CC(C)(C)C [302/2],pIC50 (FF),RORγ,6.1
same,pIC50 (REN),RORγ,6.1
same,IC50,[1],5010 nM
Cc1c(C(=O)NC2CCOCC2)cc(-c2ccc(S(=O)(=O)NC(C)(C)C)c(C(F)(F)F)c2)n1CC1COC1 [302/3],pIC50 (FF),RORγ,6.3
same,pIC50 (REN),RORγ,6.2
same,IC50,[1],15800 nM
Cc1c(C(=O)NC2CCOCC2)cc(-c2ccc(S(=O)(=O)NC(C)(C)C)c(C(F)(F)F)c2)n1CC1CCOC1 (stereo not drawn) [302/4],pIC50 (FF),RORγ,< 4.7
same,pIC50 (REN),RORγ,< 4.7
same,IC50,[1],3980 nM
Cc1c(C(=O)NC2CCOCC2)cc(-c2ccc(S(=O)(=O)NC(C)(C)C)c(C(F)(F)F)c2)n1CC1CCCOC1 (stereo not drawn) [302/5],pIC50 (FF),RORγ,6.2
same,pIC50 (REN),RORγ,6.3
same,IC50,[1],794 nM
Cc1c(C(=O)NC2CCOCC2)cc(-c2ccc(S(=O)(=O)NC(C)(C)C)c(C(F)(F)F)c2)n1C1CCCCC1 [302/6],pIC50 (FF),RORγ,6.5
same,pIC50 (REN),RORγ,6.7
same,IC50,[1],1000 nM
CC(C)(C)c1cc(-c2nc(C(N)=O)nn2CC2CCCCC2)cc(C(C)(C)C)c1 [308/1],pIC50 (FF),RORγ,6.0
same,pIC50 (REN),RORγ,6.0
same,IC50,[1],2510 nM
CC(C)(C)c1cc(-c2nc(C(=O)NC3CC3)nn2CC2CCCCC2)cc(C(C)(C)C)c1O [308/2],pIC50 (FF),RORγ,6.2
same,pIC50 (REN),RORγ,6.3
same,IC50,[1],631 nM
CC(C)(C)c1cc(-c2nc(C(=O)NC3COC3)nn2CC2CCCCC2)cc(C(C)(C)C)c1O [308/3],pIC50 (FF),RORγ,6.3
same,pIC50 (REN),RORγ,6.4
same,IC50,[1],794 nM
CC(C)(C)c1cc(-c2nc(C(=O)NC3CCOCC3)nn2CC2CCCCC2)cc(C(C)(C)C)c1O [308/4],pIC50 (FF),RORγ,6.3
same,pIC50 (REN),RORγ,6.4
same,IC50,[1],1000 nM
CC(C)(O)CNC(=O)c1nc(-c2cc(C(C)(C)C)c(O)c(C(C)(C)C)c2)n(CC2CCCCC2)n1 [308/6],pIC50 (FF),RORγ,6.5
same,pIC50 (REN),RORγ,6.5
same,IC50,[1],1000 nM
C[C@@H](O)CNC(=O)c1nc(-c2cc(C(C)(C)C)c(O)c(C(C)(C)C)c2)n(CC2CCCCC2)n1 [308/7],pIC50 (FF),RORγ,5.7
same,pIC50 (REN),RORγ,5.9
same,IC50,[1],2510 nM
C[C@H](O)CNC(=O)c1nc(-c2cc(C(C)(C)C)c(O)c(C(C)(C)C)c2)n(CC2CCCCC2)n1 [308/8],pIC50 (FF),RORγ,6.2
same,pIC50 (REN),RORγ,6.3
same,IC50,[1],1580 nM
CC(C)(C)NS(=O)(=O)c1ccc(-c2nc(C(=O)NC3CCOCC3)nn2CC2CCCCC2)cc1C(C)(C)C [308/9],pIC50 (FF),RORγ,5.6
same,pIC50 (REN),RORγ,5.6
same,IC50,[1],7940 nM
CC(C)(C)NS(=O)(=O)c1ccc(-c2nc(C(=O)N[C@H]3C[C@H](C(=O)O)C3)nn2CC2CCCCC2)cc1C(C)(C)C [308/10],pIC50 (FF),RORγ,< 4.7
same,pIC50 (REN),RORγ,< 4.7
same,IC50,[1],6310 nM
Cc1cc(-n2nc(C(N)=O)cc2CC2CCCCC2)cc(C(C)(C)C)c1 [312/2],pIC50 (FF),RORγ,< 4.7
same,pIC50 (REN),RORγ,< 4.7
same,IC50,[1],7940 nM
Cc1c(C(=O)NCC(C)(C)O)cn(-c2cc(C(C)(C)C)cc(C3(C)CC3)c2)c1CC1CCCCC1 [Example 1/1],pIC50 (FF),RORγ,7.4
same,pIC50 (REN),RORγ,7.5
same,IC50,[1],200 nM
"Cc1c(C(=O)NC2CCOCC2)cn(-c2cc(Br)cc(C(C)(C)C)c2)c1C=C1CCCCC1 [Example 2, 1-(3-Bromo-5-(tert-butyl)phenyl)-5-(cyclohexylidenemethyl)-4-methyl-N-(tetrahydro-2H-pyran-4-yl)-1H-pyrrole-3-carboxamide]",pIC50 (FF),RORγ,6.4
same,pIC50 (REN),RORγ,6.5
same,IC50,[1],1260 nM
"Cc1c(C(=O)NCCC(C)(C)C(=O)O)cn(-c2ccc(S(=O)(=O)NC(C)(C)C)c(C(F)(F)F)c2)c1CC1CCCCC1 [Example 4, 4-(1-(4-(N-(tert-Butyl)sulfamoyl)-3-(trifluoromethyl)phenyl)-5-(cyclohexylmethyl)-4-methyl-1H-pyrrole-3-carboxamido)-2,2-dimethylbutanoic acid]",pIC50 (FF),RORγ,7.7
same,pIC50 (REN),RORγ,7.7
same,IC50,[1],501 nM
Cc1c(C(=O)N[C@H]2C[C@H](C(=O)O)C2)cn(-c2ccc(S(=O)(=O)NC(C)(C)C)c(C(C)(C)C)c2)c1CC1CCCCC1 [Example 4/1],pIC50 (FF),RORγ,7.2
same,pIC50 (REN),RORγ,7.3
same,IC50,[1],1260 nM

# From patent US9458104B2 (priority 2012, dated 2016)
